In the NIST ThermoML archive (doi:10.1021/je025649t):

Key:
[1] = refractive index (Na D-line) (dimensionless); xn = mol fraction of the nth substance listed; settings: 298.15 K, 101 kPa, Liquid, refractometer
[2] = heat capacity at constant pressure per volume; xn = mol fraction of the nth substance listed; settings: 298.15 K, 101 kPa, Liquid, Flow calorimetry
[3] = excess molar enthalpy (molar enthalpy of mixing); xn = mol fraction of the nth substance listed; settings: 298.15 K, 101 kPa, Liquid, Flow calorimetry
[4] = xn = mol fraction of the nth substance listed; settings: 298.15 K, 101 kPa, Liquid, Vibrating tube method
[5] = 298.15 K; 101.33 kPa; Liquid; Vibrating tube method
[6] = molar heat capacity at constant pressure; settings: 298.15 K; 101.33 kPa; Liquid; Flow calorimetry
[7] = refractive index (Na D-line) (dimensionless); settings: 298.15 K; 101.33 kPa; Liquid; refractometer

CCCCCC(C)=O [2-heptanone] + C1CCOCC1
Settings | excess molar enthalpy [kcal/mol] | heat capacity [J/K/m3] | mass density [kg/m3] | refractive index
[1], x2 = 0.0855 | – | – | – | 1.4075
[1], x2 = 0.1588 | – | – | – | 1.4081
[1], x2 = 0.2375 | – | – | – | 1.40879
[1], x2 = 0.3113 | – | – | – | 1.40947
[1], x2 = 0.3532 | – | – | – | 1.40988
[1], x2 = 0.3936 | – | – | – | 1.41029
[1], x2 = 0.4287 | – | – | – | 1.41065
[1], x2 = 0.4658 | – | – | – | 1.41105
[1], x2 = 0.5486 | – | – | – | 1.41198
[1], x2 = 0.5896 | – | – | – | 1.41246
[1], x2 = 0.6261 | – | – | – | 1.41291
[1], x2 = 0.6665 | – | – | – | 1.41343
[1], x2 = 0.7046 | – | – | – | 1.41393
[1], x2 = 0.7855 | – | – | – | 1.41507
[1], x2 = 0.8677 | – | – | – | 1.41633
[1], x2 = 0.9473 | – | – | – | 1.41768
[2], x2 = 0.0687 | – | 1711900 | – | –
[2], x2 = 0.1469 | – | 1699600 | – | –
[2], x2 = 0.2226 | – | 1687400 | – | –
[2], x2 = 0.3113 | – | 1672200 | – | –
[2], x2 = 0.3855 | – | 1659100 | – | –
[2], x2 = 0.4613 | – | 1645000 | – | –
[2], x2 = 0.5449 | – | 1628000 | – | –
[2], x2 = 0.6288 | – | 1610700 | – | –
[2], x2 = 0.7034 | – | 1594700 | – | –
[2], x2 = 0.7801 | – | 1576700 | – | –
[2], x2 = 0.8581 | – | 1558500 | – | –
[2], x2 = 0.9388 | – | 1538500 | – | –
[3], x2 = 0.1 | 0.00354 | – | – | –
[3], x2 = 0.15 | 0.0053 | – | – | –
[3], x2 = 0.2 | 0.00696 | – | – | –
[3], x2 = 0.25 | 0.0082 | – | – | –
[3], x2 = 0.3 | 0.00946 | – | – | –
[3], x2 = 0.35 | 0.0106 | – | – | –
[3], x2 = 0.4 | 0.0118 | – | – | –
[3], x2 = 0.45 | 0.0129 | – | – | –
[3], x2 = 0.5 | 0.0138 | – | – | –
[3], x2 = 0.55 | 0.0144 | – | – | –
[3], x2 = 0.6 | 0.0147 | – | – | –
[3], x2 = 0.65 | 0.0146 | – | – | –
[3], x2 = 0.7 | 0.0142 | – | – | –
[3], x2 = 0.75 | 0.0134 | – | – | –
[3], x2 = 0.8 | 0.012 | – | – | –
[3], x2 = 0.85 | 0.0103 | – | – | –
[3], x2 = 0.9 | 0.00793 | – | – | –
[4], x2 = 0.0796 | – | – | 814.73 | –
[4], x2 = 0.1679 | – | – | 819.18 | –
[4], x2 = 0.2235 | – | – | 822.12 | –
[4], x2 = 0.3185 | – | – | 827.4 | –
[4], x2 = 0.3518 | – | – | 829.33 | –
[4], x2 = 0.4045 | – | – | 832.49 | –
[4], x2 = 0.4377 | – | – | 834.53 | –
[4], x2 = 0.4617 | – | – | 836.04 | –
[4], x2 = 0.5166 | – | – | 839.61 | –
[4], x2 = 0.5455 | – | – | 841.54 | –
[4], x2 = 0.5907 | – | – | 844.65 | –
[4], x2 = 0.6312 | – | – | 847.53 | –
[4], x2 = 0.6667 | – | – | 850.14 | –
[4], x2 = 0.7077 | – | – | 853.23 | –
[4], x2 = 0.7101 | – | – | 853.42 | –
[4], x2 = 0.7907 | – | – | 859.84 | –
[4], x2 = 0.8696 | – | – | 866.59 | –
[4], x2 = 0.9539 | – | – | 874.37 | –

O=C1CCCCC1 [cyclohexanone] + C1CCOCC1
[3]
Settings | excess molar enthalpy [kcal/mol]
x2 = 0.1 | 0.00647
x2 = 0.15 | 0.00919
x2 = 0.2 | 0.0117
x2 = 0.25 | 0.0139
x2 = 0.3 | 0.016
x2 = 0.35 | 0.0176
x2 = 0.4 | 0.0189
x2 = 0.45 | 0.0198
x2 = 0.5 | 0.0207
x2 = 0.55 | 0.0214
x2 = 0.6 | 0.0215
x2 = 0.65 | 0.0209
x2 = 0.7 | 0.0199
x2 = 0.75 | 0.0184
x2 = 0.8 | 0.0164
x2 = 0.85 | 0.0137
x2 = 0.9 | 0.01

CCCC(C)=O [pentan-2-one] + C1CCOCC1
Settings | excess molar enthalpy [kcal/mol] | heat capacity [J/K/m3] | mass density [kg/m3] | refractive index
[1], x2 = 0.0811 | – | – | – | 1.39011
[1], x2 = 0.1565 | – | – | – | 1.39223
[1], x2 = 0.2425 | – | – | – | 1.39468
[1], x2 = 0.3122 | – | – | – | 1.39668
[1], x2 = 0.3557 | – | – | – | 1.39796
[1], x2 = 0.4037 | – | – | – | 1.39937
[1], x2 = 0.4406 | – | – | – | 1.40047
[1], x2 = 0.4757 | – | – | – | 1.40153
[1], x2 = 0.5107 | – | – | – | 1.40259
[1], x2 = 0.5449 | – | – | – | 1.40364
[1], x2 = 0.5933 | – | – | – | 1.40514
[1], x2 = 0.6252 | – | – | – | 1.40614
[1], x2 = 0.6681 | – | – | – | 1.4075
[1], x2 = 0.708 | – | – | – | 1.40878
[1], x2 = 0.7915 | – | – | – | 1.4115
[1], x2 = 0.8776 | – | – | – | 1.41439
[1], x2 = 0.9411 | – | – | – | 1.41658
[2], x2 = 0.0611 | – | 1698200 | – | –
[2], x2 = 0.1398 | – | 1685200 | – | –
[2], x2 = 0.2219 | – | 1670700 | – | –
[2], x2 = 0.3029 | – | 1656100 | – | –
[2], x2 = 0.3789 | – | 1641900 | – | –
[2], x2 = 0.457 | – | 1627300 | – | –
[2], x2 = 0.5376 | – | 1611700 | – | –
[2], x2 = 0.6153 | – | 1596800 | – | –
[2], x2 = 0.698 | – | 1580600 | – | –
[2], x2 = 0.7772 | – | 1565100 | – | –
[2], x2 = 0.8503 | – | 1550300 | – | –
[2], x2 = 0.9311 | – | 1533300 | – | –
[3], x2 = 0.1 | 0.00636 | – | – | –
[3], x2 = 0.15 | 0.0092 | – | – | –
[3], x2 = 0.2 | 0.0119 | – | – | –
[3], x2 = 0.25 | 0.0144 | – | – | –
[3], x2 = 0.3 | 0.0164 | – | – | –
[3], x2 = 0.35 | 0.0182 | – | – | –
[3], x2 = 0.4 | 0.0197 | – | – | –
[3], x2 = 0.45 | 0.0209 | – | – | –
[3], x2 = 0.5 | 0.0218 | – | – | –
[3], x2 = 0.55 | 0.0222 | – | – | –
[3], x2 = 0.6 | 0.0222 | – | – | –
[3], x2 = 0.65 | 0.0219 | – | – | –
[3], x2 = 0.7 | 0.0212 | – | – | –
[3], x2 = 0.75 | 0.0197 | – | – | –
[3], x2 = 0.8 | 0.0174 | – | – | –
[3], x2 = 0.85 | 0.0145 | – | – | –
[3], x2 = 0.9 | 0.0107 | – | – | –
[4], x2 = 0.0708 | – | – | 806.39 | –
[4], x2 = 0.1523 | – | – | 812.26 | –
[4], x2 = 0.2361 | – | – | 818.39 | –
[4], x2 = 0.3015 | – | – | 823.22 | –
[4], x2 = 0.3529 | – | – | 827.06 | –
[4], x2 = 0.3858 | – | – | 829.54 | –
[4], x2 = 0.4384 | – | – | 833.53 | –
[4], x2 = 0.4683 | – | – | 835.82 | –
[4], x2 = 0.5046 | – | – | 838.6 | –
[4], x2 = 0.5548 | – | – | 842.49 | –
[4], x2 = 0.5825 | – | – | 844.66 | –
[4], x2 = 0.6397 | – | – | 849.17 | –
[4], x2 = 0.6747 | – | – | 851.95 | –
[4], x2 = 0.7079 | – | – | 854.61 | –
[4], x2 = 0.7776 | – | – | 860.26 | –
[4], x2 = 0.8646 | – | – | 867.44 | –
[4], x2 = 0.9428 | – | – | 874.02 | –

C1CCOCC1 [tetrahydropyran]
Settings | mass density [kg/m3] | molar heat capacity at constant pressure [J/K/mol] | refractive index
[5] | 878.91 | – | –
[6] | – | 149.32 | –
[7] | – | – | 1.41865
